# Reference: ChEMBL document CHEMBL5523757, “Discovery, Synthesis, and Activity Evaluation of Novel Five-Membered Sulfur-Containing Heterocyclic Nucleosides as Potential Anticancer Agents In Vitro and In Vivo” (J Med Chem, 2024)
# Tests used:
# [1] = Acute toxicity in BALB/c mouse assessed as animal survival at 1000 mg/kg,ip observed after 14 days; type: organism-based; settings: in vivo, time 14 day
# [2] = Acute toxicity in female BALB/c mouse assessed as animal death at 200 to 1000 mg/kg,ip observed after 3 days; type: organism-based; settings: in vivo, 72 h, dose 200-1000 mg/kg, time 3 day
# [3] = Toxicity in BALB/c mouse xenografted with human HeLa cells assessed as histopathological change in spleen at 15 to 60 mg/kg,ip once daily for 14 days by hematoxylin and eosin staining analysis; type: organism-based; settings: in vivo, 336 h, dose 15-60 mg/kg, time 14 day
# [4] = Acute toxicity in male BALB/c mouse assessed as animal death at 200 to 1000 mg/kg,ip observed for 4 to 15 days; type: organism-based; settings: in vivo, dose lower 200 mg/kg, time lower 4 day, dose upper 1000 mg/kg, time upper 15 day
# [5] = Acute toxicity in female BALB/c mouse assessed as animal death at 200 to 1000 mg/kg,ip observed for 4 to 15 days; type: organism-based; settings: in vivo, dose lower 200 mg/kg, time lower 4 day, dose upper 1000 mg/kg, time upper 15 day
# [6] = Acute toxicity in male BALB/c mouse assessed as animal death at 200 to 1000 mg/kg,ip observed after 3 days; type: organism-based; settings: in vivo, 72 h, dose 200-1000 mg/kg, time 3 day
# [7] = test system: HeLa; experiment: Induction of apoptosis in human HeLa cells at 2 to 8 uM incubated for 48 hrs by annexin V-FITC/PI staining based flow cytometry relative to control; type: functional; settings: dose 2-8 µM
# [8] = test system: HeLa; experiment: Antiproliferative activity against human HeLa cells assessed as inhibition of cell growth incubated for 48 hrs by CCK-8 assay; type: functional, cell-based; settings: hela
# [9] = test system: PANC-1; experiment: Antiproliferative activity against human PANC-1 cells assessed as inhibition of cell growth incubated for 48 hrs by CCK-8 assay; type: functional, cell-based; settings: panc-1
# [10] = Acute toxicity in BALB/c mouse assessed as animal survival at 400 mg/kg,ip observed after 14 days; type: organism-based; settings: in vivo, time 14 day
# [11] = Acute toxicity in BALB/c mouse assessed as animal survival at 600 mg/kg,ip observed after 14 days; type: organism-based; settings: in vivo, time 14 day
# [12] = test system: MCF7; experiment: Antiproliferative activity against human MCF7 cells assessed as inhibition of cell growth incubated for 48 hrs by CCK-8 assay; type: functional, cell-based; settings: Homo sapiens, MCF7, 48 h
# [13] = test system: HCT-116; experiment: Antiproliferative activity against human HCT-116 cells assessed as inhibition of cell growth incubated for 48 hrs by CCK-8 assay; type: functional, cell-based; settings: Homo sapiens, HCT-116, 48 h
# [14] = Acute toxicity in BALB/c mouse assessed as animal survival at 200 mg/kg,ip observed after 14 days; type: organism-based; settings: in vivo, time 14 day
# [15] = Acute toxicity in female BALB/c mouse assessed as animal death at 200 to 400 mg/kg,ip observed after 1 day; type: organism-based; settings: in vivo, 24 h, dose 200-400 mg/kg
# [16] = Acute toxicity in BALB/c mouse assessed as animal survival at 800 mg/kg,ip observed after 14 days; type: organism-based; settings: in vivo, time 14 day
# [17] = Toxicity in BALB/c mouse xenografted with human HeLa cells assessed as histopathological change in lung at 15 to 60 mg/kg,ip once daily for 14 days by hematoxylin and eosin staining analysis; type: organism-based; settings: in vivo, 336 h, dose 15-60 mg/kg, time 14 day
# [18] = Toxicity in BALB/c mouse xenografted with human HeLa cells assessed as histopathological change in kidney at 15 to 60 mg/kg,ip once daily for 14 days by hematoxylin and eosin staining analysis; type: organism-based; settings: in vivo, 336 h, dose 15-60 mg/kg, time 14 day
# [19] = Acute toxicity in BALB/c mouse assessed as lethal dose at ip administration observed after 14 days; type: organism-based; settings: in vivo, time 14 day
# [20] = Acute toxicity in female BALB/c mouse assessed as animal death at 200 to 600 mg/kg,ip observed after 2 day; type: organism-based; settings: in vivo, 48 h, dose 200-600 mg/kg
# [21] = Toxicity in BALB/c mouse xenografted with human HeLa cells assessed as histopathological change in heart at 15 to 60 mg/kg,ip once daily for 14 days by hematoxylin and eosin staining analysis; type: organism-based; settings: in vivo, 336 h, dose 15-60 mg/kg, time 14 day
# [22] = Toxicity in BALB/c mouse xenografted with human HeLa cells assessed as change in body weight at 15 to 60 mg/kg,ip once daily for 14 days; type: organism-based; settings: in vivo, 336 h, dose 15-60 mg/kg, time 14 day
# [23] = Half life in BALB/c mouse plasma at 10 to 200 uM; type: ADME, cell-free; settings: dose 10-200 µM
# [24] = Acute toxicity in male BALB/c mouse assessed as animal death at 200 to 600 mg/kg,ip observed after 2 day; type: organism-based; settings: in vivo, 48 h, dose 200-600 mg/kg
# [25] = test system: HepG2; experiment: Antiproliferative activity against human HepG2 cells assessed as inhibition of cell growth incubated for 48 hrs by CCK-8 assay; type: functional, cell-based; settings: Homo sapiens, HepG2, 48 h
# [26] = Acute toxicity in female BALB/c mouse assessed as animal death at 1000 mg/kg,ip observed after 2 day; type: organism-based; settings: in vivo, 48 h
# [27] = Acute toxicity in male BALB/c mouse assessed as animal death at 200 to 400 mg/kg,ip observed after 1 day; type: organism-based; settings: in vivo, 24 h, dose 200-400 mg/kg
# [28] = Toxicity in BALB/c mouse xenografted with human HeLa cells assessed as histopathological change in liver at 15 to 60 mg/kg,ip once daily for 14 days by hematoxylin and eosin staining analysis; type: organism-based; settings: in vivo, 336 h, dose 15-60 mg/kg, time 14 day
# [29] = test system: A549; experiment: Antiproliferative activity against human A549 cells assessed as inhibition of cell growth incubated for 48 hrs by CCK-8 assay; type: functional, cell-based; settings: Homo sapiens, A549, 48 h
structure (smiles),measurement,setting,value
CCOC(=O)C[C@H]1CSC[C@]1(C(=O)OCC)n1cnc2c(Cl)nc(Cl)nc21 (racemic),survival at 336 h,[1],0%
same,Activity,[2],Non-Toxic
same,Activity,[3],Non-Toxic
same,Activity,[4],Non-Toxic
same,Activity,[5],Non-Toxic
same,Activity,[6],Non-Toxic
same,Activity,[7],8.05%
same,IC50,[8],2.8 µM
same,IC50,[9],13 µM
same,survival at 336 h,[10],100%
same,survival at 336 h,[11],50%
same,IC50,[12],5.54 µM
same,IC50,[13],3.82 µM
same,survival at 336 h,[14],100%
same,Activity,[15],Non-Toxic
same,survival at 336 h,[16],10%
same,Activity,[17],Non-Toxic
same,Activity,[18],Non-Toxic
same,LD50 at 336 h,[19],613 mg/kg
same,Activity,[20],Non-Toxic
same,Activity,[21],Non-Toxic
same,Activity,[22],Non-Toxic
same,half-life at up to 200 µM,[23],3 h
same,Activity,[24],Non-Toxic
same,IC50,[25],32.7 µM
same,Activity,[26],Non-Toxic
same,Activity,[27],Non-Toxic
same,Activity,[28],Non-Toxic
same,IC50,[29],46 µM
